Measured values: PubChem BioAssay AID248 (DTP/NCI, 2004)
Values joined by “and” are separate entries in the source; they are usually repeats but may differ in a detail not shown here. Identical values can stand only once. Inconclusive results and toxic doses are left out. Rule as the data show it: active = T/C of 150% or more; inactive = T/C below 125%.

System: L1210 leukemia ip in BDF1 mice, survival T/C
Assay: NCI In Vivo Anticancer Drug Screen. Data for tumor model L1210 Leukemia (intraperitoneal) in B6D2F1 (BDF1) mice
Settings: higher = longer survival
Method in brief: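 Value reflects the ratio of survival in compound-treated mice to survival in vehicle-treated controls, with both groups carrying the same transplanted tumor.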

Measured: T/C

N=C(N)SCc1c2ccccc2c(CSC(=N)N)c2ccccc12
inactive: endpoint: mean survival time, dose: 0.1 mg/kg/injection, schedule: Q07DX002 (ip), vehicle: saline 97 % of control | endpoint: mean survival time, dose: 0.11 mg/kg/injection, schedule: Q01DX Z (ip), vehicle: saline 110 % of control | endpoint: mean survival time, dose: 0.2 mg/kg/injection, schedule: Q01DX Z (ip), vehicle: carboxymethylcellulose (CMC) 113 % of control | endpoint: mean survival time, dose: 0.2 mg/kg/injection, schedule: Q07DX002 (ip), vehicle: saline 103 % of control | endpoint: mean survival time, dose: 0.3 mg/kg/injection, schedule: Q01DX Z (ip), vehicle: carboxymethylcellulose (CMC) 110 % of control | endpoint: mean survival time, dose: 0.3 mg/kg/injection, schedule: Q03HX008 (ip), vehicle: other 113 % of control | endpoint: mean survival time, dose: 0.37 mg/kg/injection, schedule: Q01DX Z (ip), vehicle: carboxymethylcellulose (CMC) 103 % of control | endpoint: mean survival time, dose: 0.39 mg/kg/injection, schedule: Q07DX002 (ip), vehicle: saline 92 % of control | endpoint: mean survival time, dose: 0.62 mg/kg/injection, schedule: Q#A X Z (ip), vehicle: carboxymethylcellulose (CMC) 111 % of control | endpoint: mean survival time, dose: 0.63 mg/kg/injection, schedule: Q01DX Z (im), vehicle: carboxymethylcellulose (CMC) 112 % of control | endpoint: mean survival time, dose: 0.63 mg/kg/injection, schedule: Q01DX Z (sc), vehicle: carboxymethylcellulose (CMC) 106 % of control | endpoint: mean survival time, dose: 0.75 mg/kg/injection, schedule: Q01DX Z (im), vehicle: carboxymethylcellulose (CMC) 106 % of control | endpoint: mean survival time, dose: 0.78 mg/kg/injection, schedule: Q07DX002 (ip), vehicle: saline 110 % of control | endpoint: mean survival time, dose: 1.25 mg/kg/injection, schedule: Q01DX009 (sc), vehicle: carboxymethylcellulose (CMC) 92 % of control | endpoint: mean survival time, dose: 1.25 mg/kg/injection, schedule: Q01DX Z (sc), vehicle: carboxymethylcellulose (CMC) 103 % of control and 112 % of control | endpoint: mean survival time, dose: 1.5 mg/kg/injection, schedule: Q01DX Z (ip), vehicle: saline 112 % of control | endpoint: mean survival time, dose: 2.5 mg/kg/injection, schedule: Q01DX009 (sc), vehicle: carboxymethylcellulose (CMC) 92 % of control | endpoint: mean survival time, dose: 2.5 mg/kg/injection, schedule: Q01DX Z (sc), vehicle: carboxymethylcellulose (CMC) 106 % of control and 113 % of control | endpoint: mean survival time, dose: 3.12 mg/kg/injection, schedule: Q01DX Z (im), vehicle: carboxymethylcellulose (CMC) 112 % of control | endpoint: mean survival time, dose: 3.12 mg/kg/injection, schedule: Q01DX Z (ip), vehicle: carboxymethylcellulose (CMC) 112 % of control | endpoint: mean survival time, dose: 5.0 mg/kg/injection, schedule: Q01DX006 (iv), vehicle: carboxymethylcellulose (CMC) 108 % of control | endpoint: mean survival time, dose: 5.0 mg/kg/injection, schedule: Q01DX009 (sc), vehicle: carboxymethylcellulose (CMC) 92 % of control | endpoint: mean survival time, dose: 5.0 mg/kg/injection, schedule: Q01DX Z (im), vehicle: carboxymethylcellulose (CMC) 113 % of control | endpoint: mean survival time, dose: 10.0 mg/kg/injection, schedule: Q01DX006 (iv), vehicle: carboxymethylcellulose (CMC) 96 % of control and 111 % of control | endpoint: mean survival time, dose: 10.0 mg/kg/injection, schedule: Q01DX009 (sc), vehicle: carboxymethylcellulose (CMC) 98 % of control | endpoint: mean survival time, dose: 10.0 mg/kg/injection, schedule: Q01DX Z (oral), vehicle: carboxymethylcellulose (CMC) 108 % of control | endpoint: mean survival time, dose: 10.0 mg/kg/injection, schedule: Q01DX Z (sc), vehicle: carboxymethylcellulose (CMC) 108 % of control | endpoint: mean survival time, dose: 12.5 mg/kg/injection, schedule: Q01DX Z (im), vehicle: carboxymethylcellulose (CMC) 110 % of control | endpoint: mean survival time, dose: 12.5 mg/kg/injection, schedule: Q03HX008 (ip), vehicle: carboxymethylcellulose (CMC) 107 % of control | endpoint: mean survival time, dose: 17.0 mg/kg/injection, schedule: Q01DX001 (ip), vehicle: carboxymethylcellulose (CMC) 111 % of control | endpoint: mean survival time, dose: 20.0 mg/kg/injection, schedule: Q01DX001 (sc), vehicle: carboxymethylcellulose (CMC) 98 % of control | endpoint: mean survival time, dose: 20.0 mg/kg/injection, schedule: Q01DX006 (iv), vehicle: carboxymethylcellulose (CMC) 112 % of control | endpoint: mean survival time, dose: 20.0 mg/kg/injection, schedule: Q01DX009 (sc), vehicle: carboxymethylcellulose (CMC) 95 % of control and 100 % of control | endpoint: mean survival time, dose: 20.0 mg/kg/injection, schedule: Q01DX Z (im), vehicle: carboxymethylcellulose (CMC) 106 % of control | endpoint: mean survival time, dose: 20.0 mg/kg/injection, schedule: Q01DX Z (oral), vehicle: carboxymethylcellulose (CMC) 111 % of control | endpoint: mean survival time, dose: 20.0 mg/kg/injection, schedule: Q01DX Z (sc), vehicle: carboxymethylcellulose (CMC) 106 % of control and 109 % of control | endpoint: mean survival time, dose: 25.0 mg/kg/injection, schedule: Q01DX017 (ip), vehicle: carboxymethylcellulose (CMC) 102 % of control | endpoint: mean survival time, dose: 25.0 mg/kg/injection, schedule: Q03HX040 (ip), vehicle: carboxymethylcellulose (CMC) 100 % of control | endpoint: mean survival time, dose: 30.0 mg/kg/injection, schedule: Q01DX009 (sc), vehicle: carboxymethylcellulose (CMC) 100 % of control | endpoint: mean survival time, dose: 32.0 mg/kg/injection, schedule: Q03HX024 (ip), vehicle: carboxymethylcellulose (CMC) 97 % of control | endpoint: mean survival time, dose: 32.0 mg/kg/injection, schedule: Q03HX024 (ip), vehicle: other 101 % of control | endpoint: mean survival time, dose: 40.0 mg/kg/injection, schedule: Q01DX001 (sc), vehicle: carboxymethylcellulose (CMC) 104 % of control | endpoint: mean survival time, dose: 41.0 mg/kg/injection, schedule: Q01DX Z (ip), vehicle: saline 105 % of control | endpoint: mean survival time, dose: 44.0 mg/kg/injection, schedule: Q01DX009 (sc), vehicle: carboxymethylcellulose (CMC) 101 % of control | endpoint: mean survival time, dose: 48.0 mg/kg/injection, schedule: Q01DX Z (ip), vehicle: carboxymethylcellulose (CMC) 101 % of control | endpoint: mean survival time, dose: 50.0 mg/kg/injection, schedule: Q03HX008 (ip), vehicle: carboxymethylcellulose (CMC) 113 % of control | endpoint: mean survival time, dose: 50.0 mg/kg/injection, schedule: Q03HX016 (ip), vehicle: carboxymethylcellulose (CMC) 94 % of control | endpoint: mean survival time, dose: 50.0 mg/kg/injection, schedule: Q03HX024 (ip), vehicle: carboxymethylcellulose (CMC) 102 % of control | endpoint: mean survival time, dose: 61.5 mg/kg/injection, schedule: Q01DX Z (ip), vehicle: saline 92 % of control | endpoint: mean survival time, dose: 66.0 mg/kg/injection, schedule: Q01DX009 (sc), vehicle: carboxymethylcellulose (CMC) 102 % of control | endpoint: mean survival time, dose: 80.0 mg/kg/injection, schedule: Q01DX001 (sc), vehicle: carboxymethylcellulose (CMC) 103 % of control | endpoint: mean survival time, dose: 80.0 mg/kg/injection, schedule: Q01DX Z (oral), vehicle: carboxymethylcellulose (CMC) 105 % of control and 106 % of control | endpoint: mean survival time, dose: 100.0 mg/kg/injection, schedule: Q01DX009 (ip), vehicle: saline 92 % of control | endpoint: mean survival time, dose: 100.0 mg/kg/injection, schedule: Q01DX009 (sc), vehicle: carboxymethylcellulose (CMC) 107 % of control | endpoint: mean survival time, dose: 100.0 mg/kg/injection, schedule: Q06HX004 (ip), vehicle: carboxymethylcellulose (CMC) 93 % of control | endpoint: mean survival time, dose: 100.0 mg/kg/injection, schedule: Q08DX003 (ip), vehicle: carboxymethylcellulose (CMC) 108 % of control | endpoint: mean survival time, dose: 160.0 mg/kg/injection, schedule: Q01DX001 (sc), vehicle: carboxymethylcellulose (CMC) 103 % of control | endpoint: mean survival time, dose: 200.0 mg/kg/injection, schedule: Q01DX009 (ip), vehicle: carboxymethylcellulose (CMC) 113 % of control | endpoint: mean survival time, dose: 200.0 mg/kg/injection, schedule: Q01DX017 (ip), vehicle: carboxymethylcellulose (CMC) 105 % of control | endpoint: mean survival time, dose: 200.0 mg/kg/injection, schedule: Q01DX Z (im), vehicle: carboxymethylcellulose (CMC) 112 % of control | endpoint: mean survival time, dose: 200.0 mg/kg/injection, schedule: Q08DX002 (ip), vehicle: carboxymethylcellulose (CMC) 113 % of control | endpoint: mean survival time, dose: 200.0 mg/kg/injection, schedule: Q08DX003 (ip), vehicle: carboxymethylcellulose (CMC) 104 % of control | endpoint: mean survival time, dose: 200.0 mg/kg/injection, schedule: Q#A X002 (ip), vehicle: saline 111 % of control | endpoint: mean survival time, dose: 266.0 mg/kg/injection, schedule: Q01DX001 (sc), vehicle: carboxymethylcellulose (CMC) 103 % of control | endpoint: mean survival time, dose: 300.0 mg/kg/injection, schedule: Q03DX Z (ip), vehicle: saline 113 % of control | endpoint: mean survival time, dose: 320.0 mg/kg/injection, schedule: Q01DX001 (sc), vehicle: carboxymethylcellulose (CMC) 103 % of control | endpoint: mean survival time, dose: 320.0 mg/kg/injection, schedule: Q01DX Z (oral), vehicle: carboxymethylcellulose (CMC) 112 % of control | endpoint: mean survival time, dose: 400.0 mg/kg/injection, schedule: Q01DX001 (oral), vehicle: carboxymethylcellulose (CMC) 106 % of control | endpoint: mean survival time, dose: 400.0 mg/kg/injection, schedule: Q01DX001 (sc), vehicle: carboxymethylcellulose (CMC) 102 % of control | endpoint: mean survival time, dose: 400.0 mg/kg/injection, schedule: Q04DX005 (ip), vehicle: carboxymethylcellulose (CMC) 97 % of control | endpoint: mean survival time, dose: 400.0 mg/kg/injection, schedule: Q07DX Z (ip), vehicle: saline 102 % of control | endpoint: mean survival time, dose: 400.0 mg/kg/injection, schedule: Q08DX002 (ip), vehicle: saline 97 % of control | endpoint: mean survival time, dose: 600.0 mg/kg/injection, schedule: Q01DX001 (sc), vehicle: carboxymethylcellulose (CMC) 98 % of control | endpoint: mean survival time, dose: 640.0 mg/kg/injection, schedule: Q01DX Z (oral), vehicle: carboxymethylcellulose (CMC) 112 % of control | endpoint: mean survival time, dose: 800.0 mg/kg/injection, schedule: Q01DX001 (oral), vehicle: carboxymethylcellulose (CMC) 105 % of control | endpoint: mean survival time, dose: 800.0 mg/kg/injection, schedule: Q08DX002 (ip), vehicle: carboxymethylcellulose (CMC) 109 % of control and 111 % of control | endpoint: mean survival time, dose: 800.0 mg/kg/injection, schedule: Q08DX003 (ip), vehicle: carboxymethylcellulose (CMC) 107 % of control | endpoint: mean survival time, dose: 900.0 mg/kg/injection, schedule: Q01DX001 (sc), vehicle: carboxymethylcellulose (CMC) 112 % of control | endpoint: mean survival time, dose: 1200.0 mg/kg/injection, schedule: Q01DX001 (oral), vehicle: carboxymethylcellulose (CMC) 97 % of control | endpoint: mean survival time, dose: 1280.0 mg/kg/injection, schedule: Q01DX Z (oral), vehicle: carboxymethylcellulose (CMC) 101 % of control | endpoint: mean survival time, dose: 1340.0 mg/kg/injection, schedule: Q01DX001 (oral), vehicle: carboxymethylcellulose (CMC) 107 % of control | endpoint: mean survival time, dose: 1600.0 mg/kg/injection, schedule: Q01DX001 (oral), vehicle: carboxymethylcellulose (CMC) 100 % of control | endpoint: mean survival time, dose: 2000.0 mg/kg/injection, schedule: Q01DX001 (oral), vehicle: carboxymethylcellulose (CMC) 112 % of control | endpoint: mean survival time, dose: 3000.0 mg/kg/injection, schedule: Q01DX001 (oral), vehicle: carboxymethylcellulose (CMC) 101 % of control | endpoint: median survival time, dose: 50.0 mg/kg/injection, schedule: Q04DX003 (ip), vehicle: steriod suspending solution 111 % of control | endpoint: median survival time, dose: 100.0 mg/kg/injection, schedule: Q01DX009 (ip), vehicle: steriod suspending solution 94 % of control | endpoint: median survival time, dose: 100.0 mg/kg/injection, schedule: Q04DX003 (ip), vehicle: steriod suspending solution 111 % of control | endpoint: median survival time, dose: 125.0 mg/kg/injection, schedule: Q01DX001 (sc), vehicle: steriod suspending solution 100 % of control | endpoint: median survival time, dose: 250.0 mg/kg/injection, schedule: Q01DX001 (sc), vehicle: steriod suspending solution 111 % of control | endpoint: median survival time, dose: 400.0 mg/kg/injection, schedule: Q04DX003 (sc), vehicle: steriod suspending solution 111 % of control | endpoint: median survival time, dose: 500.0 mg/kg/injection, schedule: Q01DX001 (sc), vehicle: steriod suspending solution 100 % of control | endpoint: median survival time, dose: 800.0 mg/kg/injection, schedule: Q04DX003 (sc), vehicle: steriod suspending solution 111 % of control | endpoint: median survival time, dose: 1000.0 mg/kg/injection, schedule: Q01DX001 (sc), vehicle: steriod suspending solution 105 % of control
